Experimental data taken from PMC3561959 (Nucleic Acids Research, 2012).

Tests used:
[1] = target: DBD-F^MBP (Homo sapiens, UniProt P27694); assay type: binding; conditions: competitive titration, fluorescence anisotropy
[2] = target: RPA (Homo sapiens, UniProt P27694); test: Helix destabilization assay; assay type: biochemical; conditions: EMSA, dsDNA probe, 200 µM of each compound
Chain of RPA (P27694 whole entry): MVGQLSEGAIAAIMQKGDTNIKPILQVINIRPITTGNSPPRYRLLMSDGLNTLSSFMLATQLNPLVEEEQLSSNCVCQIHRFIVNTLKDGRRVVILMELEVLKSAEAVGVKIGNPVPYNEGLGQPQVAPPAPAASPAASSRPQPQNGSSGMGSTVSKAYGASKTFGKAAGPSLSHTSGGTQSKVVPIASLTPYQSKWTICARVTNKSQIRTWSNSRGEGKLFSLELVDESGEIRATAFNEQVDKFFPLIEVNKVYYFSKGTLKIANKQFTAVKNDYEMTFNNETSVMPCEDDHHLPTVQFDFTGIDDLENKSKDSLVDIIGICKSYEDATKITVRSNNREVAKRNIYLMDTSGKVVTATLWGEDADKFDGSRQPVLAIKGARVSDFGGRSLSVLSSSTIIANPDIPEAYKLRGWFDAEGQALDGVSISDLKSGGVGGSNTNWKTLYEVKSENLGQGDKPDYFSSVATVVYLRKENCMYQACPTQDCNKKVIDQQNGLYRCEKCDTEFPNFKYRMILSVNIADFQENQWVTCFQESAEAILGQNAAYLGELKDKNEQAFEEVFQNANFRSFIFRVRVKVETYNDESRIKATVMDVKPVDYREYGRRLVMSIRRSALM
Chain of RPA (P15927 whole entry partner): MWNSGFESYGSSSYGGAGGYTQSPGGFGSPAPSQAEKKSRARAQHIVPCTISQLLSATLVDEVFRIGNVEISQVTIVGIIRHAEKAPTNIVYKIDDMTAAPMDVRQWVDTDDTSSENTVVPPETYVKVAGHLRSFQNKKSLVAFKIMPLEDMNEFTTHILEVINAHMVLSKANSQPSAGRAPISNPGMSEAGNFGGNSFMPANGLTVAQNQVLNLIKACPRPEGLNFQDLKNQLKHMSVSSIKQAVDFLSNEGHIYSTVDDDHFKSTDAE
Chain of RPA (P35244 whole entry partner): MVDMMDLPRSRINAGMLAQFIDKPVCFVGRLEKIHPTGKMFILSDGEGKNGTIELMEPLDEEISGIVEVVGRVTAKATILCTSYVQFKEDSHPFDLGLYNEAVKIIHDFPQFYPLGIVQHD

Chain of DBD-F^MBP (P27694 1-168): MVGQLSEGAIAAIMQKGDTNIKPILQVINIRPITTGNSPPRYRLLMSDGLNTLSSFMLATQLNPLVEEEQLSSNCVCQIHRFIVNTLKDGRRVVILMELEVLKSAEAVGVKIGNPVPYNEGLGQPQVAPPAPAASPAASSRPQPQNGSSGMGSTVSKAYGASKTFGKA

| Compound | competition with X-rhodamine-labelled p53TAD2 for binding to DBD-F^MBP [1] | inhibition of helix destabilization by RPA [2] |
| --- | --- | --- |
| O=C(O)C1CCC(C(=O)O)CC1 (stereo not shown) [1,4-cyclohexanedicarboxylic acid] | no evidence of binding | no effect |
| O=C(O)CCC(=O)O [succinic acid] | no evidence of binding | no effect |
